The text below walks through data of patent US20150219673A1, “THE USE OF GENE EXPRESSION PROFILING AS A BIOMARKER FOR ASSESSING THE EFFICACY OF HDAC INHIBITOR TREATMENT IN NEURODEGENERATIVE CONDITIONS” (Massachusetts Institute of Technology, priority 2012, published 2015).

In experiment [1] the test system is peripheral blood mononuclear cells of 5XFAD mice. Put plainly: RNA sequencing of peripheral blood mononuclear cells of 5XFAD mice after CI-994 treatment. The format is in vivo, mouse. The following applies: PBMC, CI-994 1 mg/kg i.p. every other day 1 month, FIG. 2. The protocol: After completion of treatment, blood was drawn and peripheral blood mononuclear cells were rapidly isolated. The cells were washed with PBS and total RNA was extracted using the RNeasy kit (Qiagen). RNA integrity was analyzed using the Bioanalyzer 2100 (Agilent) and the libraries were prepared using the Ovation Ultralow Library System kit (NuGen). Libraries were then pooled in equal amounts and high-throughput sequencing was performed on an Illumina HiSeq 2000 platform. Two individual biological replicates per condition were sequenced.

In a further experiment the test system is cognitive function. The following applies: cited from earlier work.

With `CC(=O)Nc1ccc(C(=O)Nc2ccccc2N)cc1` [CI-994, 4-(acetylamino)-N-(2-aminophenyl)benzamide], the “number of differentially expressed genes (wild type vs 5XFAD) rescued to control levels” value in experiment [1] stood at 69 genes. The AD-related cognitive impairments entry in the experiment on cognitive function (earlier finding stated for CI-994) is “reduce AD-related cognitive impairments”. Further, the “cognitive function in vivo” value with cognitive function (see US 2011/0224303) is listed as “improve cognitive function in vivo”.
